{"source": "patent US5348946A", "about": "“Heteroanthracycline antitumor analogs” (Biochem Immunosystems, Inc., priority 1991, dated 1994)", "key": {"[1]": {"test_system": "RXF-631", "assay": "in vitro cytotoxicity evaluation, Renal Cancer", "assay_type": "cell-based", "conditions": "Homo sapiens, 48 h, RXF-631, two days, sulforhodamine B", "description": "(§1) These assays were carried out at the Developmental Therapeutics Program, Division of Cancer Treatment, National Cancer Institute (Bethesda, Md., USA). The method consists of incubating varying concentrations of the drug with an inoculum of cells for two days.\n(§2) It should be noted that the first two parameters (GI50 and TGI) relate to antiproliferation effects while the third one (LC50) indicates true cytotoxicity."}, "[2]": {"test_system": "59 tumor cell lines", "assay": "in vitro cytotoxicity evaluation, whole panel", "assay_type": "cell-based, human", "description": "as §1, §2"}, "[3]": {"test_system": "CCRF-CEM", "assay": "in vitro cytotoxicity evaluation, Leukemia", "assay_type": "cell-based", "conditions": "Homo sapiens, 48 h, two days, sulforhodamine B", "description": "as §1, §2"}, "[4]": {"test_system": "RPMI-8226", "assay": "in vitro cytotoxicity evaluation, Leukemia", "assay_type": "cell-based", "conditions": "Homo sapiens, 48 h, RPMI-8226, two days, sulforhodamine B", "description": "as §1, §2"}, "[5]": {"test_system": "K-562", "assay": "in vitro cytotoxicity evaluation, Leukemia", "assay_type": "cell-based", "conditions": "Homo sapiens, K562, 48 h, K-562, two days, sulforhodamine B", "description": "as §1, §2"}, "[6]": {"test_system": "MOLT-4", "assay": "in vitro cytotoxicity evaluation, Leukemia", "assay_type": "cell-based", "conditions": "Homo sapiens, 48 h, MOLT-4, two days, sulforhodamine B", "description": "as §1, §2"}, "[7]": {"test_system": "SK-MEL-5", "assay": "in vitro cytotoxicity evaluation, Melanoma", "assay_type": "cell-based", "conditions": "Homo sapiens, 48 h, SK-MEL-5, two days, sulforhodamine B", "description": "as §1, §2"}, "[8]": {"test_system": "SK-MEL-28", "assay": "in vitro cytotoxicity evaluation, Melanoma", "assay_type": "cell-based", "conditions": "Homo sapiens, 48 h, SK-MEL-28, two days, sulforhodamine B", "description": "as §1, §2"}, "[9]": {"test_system": "M14", "assay": "in vitro cytotoxicity evaluation, Melanoma", "assay_type": "cell-based", "conditions": "Homo sapiens, 48 h, M14, two days, sulforhodamine B", "description": "as §1, §2"}, "[10]": {"test_system": "UACC-257", "assay": "in vitro cytotoxicity evaluation, Melanoma", "assay_type": "cell-based", "conditions": "Homo sapiens, 48 h, UACC-257, two days, sulforhodamine B", "description": "as §1, §2"}, "[11]": {"test_system": "UACC-62", "assay": "in vitro cytotoxicity evaluation, Melanoma", "assay_type": "cell-based", "conditions": "Homo sapiens, 48 h, UACC-62, two days, sulforhodamine B", "description": "as §1, §2"}, "[12]": {"test_system": "LOX IMVI", "assay": "in vitro cytotoxicity evaluation, Melanoma", "assay_type": "cell-based", "conditions": "Homo sapiens, 48 h, two days, sulforhodamine B", "description": "as §1, §2"}, "[13]": {"test_system": "MALME-3M", "assay": "in vitro cytotoxicity evaluation, Melanoma", "assay_type": "cell-based", "conditions": "Homo sapiens, 48 h, two days, sulforhodamine B", "description": "as §1, §2"}, "[14]": {"test_system": "M19-MEL", "assay": "in vitro cytotoxicity evaluation, Melanoma", "assay_type": "cell-based", "conditions": "Homo sapiens, 48 h, two days, sulforhodamine B", "description": "as §1, §2"}, "[15]": {"test_system": "SK-MEL-2", "assay": "in vitro cytotoxicity evaluation, Melanoma", "assay_type": "cell-based", "conditions": "Homo sapiens, 48 h, SK-MEL-2, two days, sulforhodamine B", "description": "as §1, §2"}, "[16]": {"conditions": "read-out: LOG10 G150 (GI50) (converted)"}, "[17]": {"conditions": "read-out: Log10 LC50 (converted)"}, "[18]": {"conditions": "read-out: Log10 TGI (converted)"}}}
{"smiles": "COc1c2c(c(OC)c3c(=O)c4ccccc4sc13)CS(=O)(=O)[C@@H]2O[C@H]1C[C@H](N)[C@H](O)[C@H](C)O1", "note": "[BCH-255, (1S ) 1-daunosamine-4-11-dimethoxy-5-oxo-5-H-1,3-dihydrothioxantheno [2,3-c] thiophene-2,2-dioxide]", "values": [{"measurement": "GI50", "setting": "[1]; [16]", "result": 20, "unit": "µM"}, {"measurement": "CC50", "setting": "[1]; [17]", "result": "> 100", "unit": "µM"}, {"measurement": "IC (total growth inhibition (TGI))", "setting": "[1]; [18]", "result": 46.8, "unit": "µM"}, {"measurement": "DELTA of Log10 TGI", "setting": "[2]; DELTA over the panel", "result": 0.13}, {"measurement": "CC50", "setting": "[2]; Homo sapiens, 48 h, MG MID over the panel, read-out: MG MID of Log10 LC50 (converted)", "result": 75.9, "unit": "µM"}, {"measurement": "IC (TGI)", "setting": "[2]; Homo sapiens, 48 h, MG MID over the panel, read-out: MG MID of Log10 TGI (converted)", "result": 40.7, "unit": "µM"}, {"measurement": "GI50", "setting": "[2]; Homo sapiens, MG MID over the panel, read-out: MG MID of LOG10 G150 (GI50) (converted)", "result": 20, "unit": "µM"}, {"measurement": "RANGE of Log10 TGI", "setting": "[2]; RANGE over the panel", "result": 0.52}, {"measurement": "cytotoxicity", "setting": "[2]; solid tumors and leukemia cell lines", "result": "all the cell lines of solid tumors and leukemia showed cytotoxcity to the drug"}, {"measurement": "spectrum of antitumor activity", "setting": "[2]; tumor cell line panel", "result": "wide spectrum of antitumor activity"}, {"measurement": "GI50", "setting": "[3]; [16]", "result": 17.8, "unit": "µM"}, {"measurement": "CC50", "setting": "[3]; [17]", "result": 97.7, "unit": "µM"}, {"measurement": "IC (total growth inhibition (TGI))", "setting": "[3]; [18]", "result": 41.7, "unit": "µM"}, {"measurement": "GI50", "setting": "[4]; [16]", "result": 16.2, "unit": "µM"}, {"measurement": "CC50", "setting": "[4]; [17]", "result": "> 100", "unit": "µM"}, {"measurement": "IC (total growth inhibition (TGI))", "setting": "[4]; [18]", "result": 40.7, "unit": "µM"}, {"measurement": "GI50", "setting": "[5]; [16]", "result": 16.2, "unit": "µM"}, {"measurement": "CC50", "setting": "[5]; [17]", "result": 83.2, "unit": "µM"}, {"measurement": "IC (total growth inhibition (TGI))", "setting": "[5]; [18]", "result": 36.3, "unit": "µM"}, {"measurement": "GI50", "setting": "[6]; [16]", "result": 19.1, "unit": "µM"}, {"measurement": "CC50", "setting": "[6]; [17]", "result": 87.1, "unit": "µM"}, {"measurement": "IC (total growth inhibition (TGI))", "setting": "[6]; [18]", "result": 40.7, "unit": "µM"}, {"measurement": "GI50", "setting": "[7]; [16]", "result": 18.2, "unit": "µM"}, {"measurement": "CC50", "setting": "[7]; [17]", "result": 57.5, "unit": "µM"}, {"measurement": "IC (total growth inhibition (TGI))", "setting": "[7]; [18]", "result": 32.4, "unit": "µM"}, {"measurement": "GI50", "setting": "[8]; [16]", "result": 18.2, "unit": "µM"}, {"measurement": "CC50", "setting": "[8]; [17]", "result": 67.6, "unit": "µM"}, {"measurement": "IC (total growth inhibition (TGI))", "setting": "[8]; [18]", "result": 34.7, "unit": "µM"}, {"measurement": "GI50", "setting": "[9]; [16]", "result": 18.2, "unit": "µM"}, {"measurement": "CC50", "setting": "[9]; [17]", "result": 60.3, "unit": "µM"}, {"measurement": "IC (total growth inhibition (TGI))", "setting": "[9]; [18]", "result": 33.1, "unit": "µM"}, {"measurement": "GI50", "setting": "[10]; [16]", "result": 22.4, "unit": "µM"}, {"measurement": "CC50", "setting": "[10]; [17]", "result": 85.1, "unit": "µM"}, {"measurement": "IC (total growth inhibition (TGI))", "setting": "[10]; read-out: Log10 TGI", "result": 43.7, "unit": "µM"}, {"measurement": "GI50", "setting": "[11]; [16]", "result": 19.1, "unit": "µM"}, {"measurement": "CC50", "setting": "[11]; [17]", "result": 74.1, "unit": "µM"}, {"measurement": "IC (total growth inhibition (TGI))", "setting": "[11]; [18]", "result": 37.2, "unit": "µM"}, {"measurement": "GI50", "setting": "[12]; [16]", "result": 17.8, "unit": "µM"}, {"measurement": "CC50", "setting": "[12]; [17]", "result": 81.3, "unit": "µM"}, {"measurement": "IC (total growth inhibition (TGI))", "setting": "[12]; [18]", "result": 38, "unit": "µM"}, {"measurement": "GI50", "setting": "[13]; [16]", "result": 20, "unit": "µM"}, {"measurement": "CC50", "setting": "[13]; [17]", "result": 67.6, "unit": "µM"}, {"measurement": "IC (total growth inhibition (TGI))", "setting": "[13]; [18]", "result": 36.3, "unit": "µM"}, {"measurement": "GI50", "setting": "[14]; [16]", "result": 18.2, "unit": "µM"}, {"measurement": "CC50", "setting": "[14]; [17]", "result": 67.6, "unit": "µM"}, {"measurement": "IC (total growth inhibition (TGI))", "setting": "[14]; [18]", "result": 34.7, "unit": "µM"}, {"measurement": "GI50", "setting": "[15]; [16]", "result": 19.1, "unit": "µM"}, {"measurement": "CC50", "setting": "[15]; [17]", "result": 70.8, "unit": "µM"}, {"measurement": "IC (total growth inhibition (TGI))", "setting": "[15]; [18]", "result": 36.3, "unit": "µM"}]}
